Legend:
[1] = test system: MCF-7 breast cancer cell line; experiment: Cell viability assay (MTT); assay type: cell-based; details: 24 h
Protocol: (§1) The MCF-7 and MDA-MB-231 breast cancer cell lines and the human keratinocyte HaCaT cell line were obtained from the American Type Culture Collection (ATCC, Manassas, VA, USA). Dulbecco’s modified eagle medium supplemented with 10% fetal bovine serum (FBS) and 1% penicillin/streptomycin was used to cultivate the cell lines. The cells were cultured at 37 °C in a 5% CO2 atmosphere.
(§2) According to the general protocol, a cell viability assay (MTT assay) was performed. […] The chemicals were dissolved in a growth medium containing 1% penicillin/streptomycin. After 24 h, 0.5 mg/mL of MTT solution (3-[4,5-dimethylthiazol-2-yl]-2,5-diphenyl-tetrazolium bromide) was added. 100 µL of DMSO was added to each well once the purple precipitate was clearly visible under the microscope. A microplate reader (Biogenet, Jozefow, Poland) and DigiRead Communication Software were used to measure the absorbance at 492 nm (Asys Hitech GmbH, Eugendorf, Austria). Data were expressed as the percentage of untreated cells (control).

PTP1B phosphatase = target: T1, PTP1B phosphatase (Homo sapiens, UniProt P18031); experiment: Recombinant PTP1B assay (pNPP substrate); assay type: biochemical; details: for Ki: calculated as Ki = IC50/(S/Km + 1), S 1 mM, Km 0.7 mM, competitive type assumed from docking, read-out: Ki ± SD; for inhibition of PTP1B: concentration range 39.063 to 625 nM; for IC50: recombinant PTP1B 10 nM, 1 mM pNPP, 37 °C, HEPES pH 7.4; for inhibitory effect on PTP1B: 78.125 nM (lowest statistically significant concentration)
T1 construct: purchased Cayman Chemical, Ann Arbor, MI, USA
T1 sequence (P18031 1-435): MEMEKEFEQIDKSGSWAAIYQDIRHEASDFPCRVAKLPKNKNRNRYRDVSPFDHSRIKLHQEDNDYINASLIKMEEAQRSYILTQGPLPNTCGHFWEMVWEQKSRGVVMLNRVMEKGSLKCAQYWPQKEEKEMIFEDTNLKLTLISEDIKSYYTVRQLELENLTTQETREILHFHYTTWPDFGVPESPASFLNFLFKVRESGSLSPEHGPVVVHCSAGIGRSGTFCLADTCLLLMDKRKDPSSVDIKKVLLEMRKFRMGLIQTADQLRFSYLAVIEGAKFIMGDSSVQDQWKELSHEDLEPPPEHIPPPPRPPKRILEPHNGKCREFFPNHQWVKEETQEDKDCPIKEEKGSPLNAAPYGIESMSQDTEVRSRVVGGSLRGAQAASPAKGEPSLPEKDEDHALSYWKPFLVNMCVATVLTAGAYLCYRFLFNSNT
Protocol: The experiment was carried out on 96-well plates. The final concentration of PTP1B phosphatase in the reaction samples was […] (10 nM). […] The enzyme activities of PTP1B phosphatase were evaluated at 37 °C using 1 mM chromogenic substrate para-nitrophenyl phosphate (pNPP) in 10 mM HEPES buffer pH 7.4. The increase in absorbance (due to the formation of para-nitrophenols) is linearly proportional to the concentration of enzyme activity (with excessive substrate, i.e., zero-order kinetics) and was measured at 405 nm using DigiRead Communication Software (version 1.2.0.2., Dan Kittrich, Asys Hitech GmbH, Eugendorf, Austria) on the Jupiter microplate reader (Biogenet, Józefów, Poland). Data were expressed as the percentage of untreated enzyme (control).

[2] = test system: MDA-MB-231 breast cancer cell line; experiment: Cell viability assay (MTT); assay type: cell-based; details: 24 h
Protocol: as §1, §2

[3] = cited from earlier work; for equivalents of L-ascorbic acid: antioxidant activity towards superoxide radical anion
[4] = test system: human keratinocyte HaCaT cell line; experiment: Cell viability assay (MTT); assay type: cell-based; details: 24 h
Protocol: as §1, §2

| Compound | Ki (PTP1B phosphatase) | inhibition of PTP1B (PTP1B phosphatase) | IC50 (PTP1B phosphatase) | cell viability (% of control) ([2]; MDA-MB-231, 25 µM) | cell viability (% of control) ([2]; MDA-MB-231, 50 µM) | cell viability (% of control) ([2]; MDA-MB-231, 100 µM) | equivalents of L-ascorbic acid [3] | inhibitory effect on PTP1B (PTP1B phosphatase) | also measured |
| --- | --- | --- | --- | --- | --- | --- | --- | --- | --- |
| COc1ccnc(-c2cc(OC)ccn2)c1.O.O.O=C([O-])c1cccc(C(=O)[O-])n1.[O]=[V+2] [Compound 4] | 74.2 ± 4.1 nM | 31–67% | 185 ± 9.8 nM |  |  |  |  |  | cell viability (% of control) ([1]; MCF-7, 25 µM): 86%; cell viability (% of control) ([1]; MCF-7, 50 µM): 61%; cell viability (% of control) ([1]; MCF-7, 100 µM): 53% |
| O.O.O=C1CNCC(=O)[O][V](=[O])[O]1.c1ccc(-c2ccccn2)nc1 [Compound 3, [VO(ida)(bipy)]·2 H2O] | 221 ± 19.1 nM |  | 543 ± 48.4 nM | 76% | 55% | 46% | 5.43 | 25% |  |
| O.O=C([O-])c1cccc(C(=O)[O-])n1.[O]=[V+2].c1ccc(-c2ccccn2)nc1 [Compound 2, [VO(dipic)(bipy)]·H2O] | 173 ± 17.2 nM |  | 426 ± 37.1 nM | 65% | 56% | 44% | 0.936 | 19% |  |
| [Na+].[Na+].[Na+].[O]=[V]([O-])([O-])[O-] [Sodium orthovanadate, reference compound] |  | 31–67% |  |  |  |  |  |  | inhibition of enzymatic activity of PTP1B (in words) (PTP1B phosphatase; complexes and orthovanadate 39.0625 nM to 5 µM, ligands 500 nM to 5 µM): inhibited the enzymatic activity of PTP1B phosphatase in a concentration-dependent manner |
| O.O.O.O.O=C([O-])c1cccc(C(=O)[O-])n1.[O]=[V+2] [Compound 1, [VO(dipic)(H2O)2]·2 H2O] | 256 ± 15.3 nM |  | 628 ± 39.1 nM |  |  |  | 2.359 | 17% | cytotoxic effect ([2]; MDA-MB-231, 50 µM): 25%; cytotoxic effect (in words) ([4]; 50 µM): no cytotoxic effect; effect on cell growth (in words) ([4]; low concentrations): improved cell growth at low concentrations |
| O.O=C1[O][V-](=[O])(=[O])[O]C(=O)c2cccc1n2.c1ccc(-c2cccc[nH+]2)cc1 [Compound 5, [VOO(dipic)](2-phepyH)·H2O] | 66.7 ± 3.3 nM | 38–68% | 167 ± 8 nM |  |  |  |  |  | calculated equivalent towards L-ascorbic acid ([3]; antioxidant activity towards superoxide anion radicals): 0.68 |

Source: PMC9267097, “Synthesis, In Vitro, and Computational Studies of PTP1B Phosphatase Inhibitors Based on Oxovanadium(IV) and Dioxovanadium(V) Complexes” (International Journal of Molecular Sciences, 2022)
